We go through 51 molecules from PMC7539012, “Hyperphosphorylated tau aggregation and cytotoxicity modulators screen identified prescription drugs linked to Alzheimer's disease and cognitive functions” (Scientific Reports, 2020).

Where a name gives a salt, the structure may show the parent alone.

The test system of the first assay is T1, 1N4R p-tau.
T1 construct: made in house; host or cells: E. coli (PIMAX system)
The assay is described as follows: p-tau aggregation modulator screen of 1280-compound library (ThS fluorescence net change over 16 h).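 Note: 30 µM compound with 6 µM p-tau over 16 h.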 Type of assay: biochemical.
Conditions: not given
The molecule `C[C@]12CC[C@H]3[C@@H](CCC4=CC(=O)CC[C@@H]43)[C@@H]1CC[C@@H]2O` [Nandrolone] displayed a ThS net change of 479.

As to `CNCCC(Oc1ccccc1OC)c1ccccc1` (stereo not drawn) [Nisoxetine hydrochloride], the ThS net change was found to be 364. In turn, `CCN(CC)CCOC(=O)C1(c2ccc([N+](=O)[O-])cc2)CCCC1.Cl` [Nitrocaramiphen hydrochloride] returned a ThS net change of 435.

The same assay, now with this note: 1280-compound library screen; ThS fluorescence net change over 16 h.
Molecule `O=C(O)c1cccnc1` [Niacin] gave a ThS net change of 391.

Molecule `NC(=O)c1cccnc1` [Nicotinamide] had a ThS net change of 406. Same read-out and setting: in the case of `Cc1c(NC(=O)c2cccnc2)c(=O)n(-c2ccccc2)n1C` [Nifenazone] it was 380; in that of `O=C(N/N=C/c1ccc([N+](=O)[O-])o1)c1ccc(O)cc1` [Nifuroxazide], 402. The molecule `O=C1NCCN1c1ncc([N+](=O)[O-])s1` [Niridazole] showed a ThS net change of 399. Still for that read-out and setting: in the case of `COC(=O)Nc1nc2ccc(C(=O)c3cccs3)cc2[nH]1` [Nocodazole] it was 409. With `CNCCC=C1c2ccccc2CCc2ccccc21` [Nortriptyline hydrochloride], the ThS net change came out at 380. As to `CC(CCc1ccccc1)NC(C)C(O)c1ccc(O)cc1` (stereo not drawn) [Nylidrin], the ThS net change is 408.

Still in this assay, the particulars now being: 1280-compound library screen; […].
As for `Cl.O.O.O=C1CC[C@@]2(O)[C@H]3Cc4ccc(O)c5c4[C@@]2(CCN3CC2CC2)[C@H]1O5` [Naltrexone hydrochloride dihydrate], the ThS net change turned out to be 408. In turn, `CN(C)C(=O)Oc1cccc([N+](C)(C)C)c1` [Neostigmine bromide] showed a ThS net change of 409.

Staying with this assay, now noted: library screen, ThS fluorescence net change over 16 h with p-tau.
Take `CN1CCOC(c2ccccc2)c2ccccc2C1` (stereo not drawn) [Nefopam hydrochloride]: the ThS net change came out at 324. Still for that read-out and setting: for `CO[C@]12C[C@@H](COC(=O)c3cncc(Br)c3)CN(C)[C@@H]1Cc1cn(C)c3cccc2c13` [Nicergoline] the value was 260; for `O=C(Nc1ccc([N+](=O)[O-])cc1Cl)c1cc(Cl)ccc1O` [Niclosamide], 199; for `COC(=O)C1=C(C#N)NC(C)=C(C(=O)OC(C)C)C1c1cccc([N+](=O)[O-])c1` (stereo not drawn) [Nilvadipine], 266. On to `CS(=O)(=O)Nc1ccc([N+](=O)[O-])cc1Oc1ccccc1` [Nimesulide], for which the ThS net change is recorded as 288. On the same count and under the same terms, in the case of `CC(=O)Oc1ccccc1C(=O)Nc1ncc([N+](=O)[O-])s1` [Nitazoxanide] it was 198. On the same count and under the same terms, in the case of `O=C1CN(/N=C/c2ccc([N+](=O)[O-])o2)C(=O)N1` [Nitrofurantoin] it was 303; in that of `CC1COc2c(N3CCN(C)CC3)c(F)cc3c(=O)c(C(=O)O)cn1c23` (stereo not drawn) [Ofloxacin], 311.

The same assay, now with this note: p-tau aggregation modulator screen of 1280-compound library; ThS fluorescence net change.
The molecule `c1ccc2c(CC3=NCCN3)cccc2c1` [Naphazoline hydrochloride] yielded a ThS net change of 361. Turning to `COc1ccc2cc([C@H](C)C(=O)O)ccc2c1` [Naproxen], the ThS net change is listed as 371. `NC[C@@H]1O[C@H](O[C@H]2[C@@H](O)[C@H](O[C@@H]3[C@@H](O)[C@H](N)C[C@H](N)[C@H]3O[C@H]3O[C@H](CN)[C@@H](O)[C@H](O)[C@H]3N)O[C@@H]2CO)[C@H](N)[C@@H](O)[C@@H]1O.O=S(=O)(O)O` [Neomycin sulfate]: the ThS net change amounted to 340. Turning to `COC(=O)C1=C(C)NC(C)=C(C(=O)OCCN(C)Cc2ccccc2)C1c1cccc([N+](=O)[O-])c1` (stereo not drawn) [Nicardipine hydrochloride], the ThS net change turned out to be 330. `O=C(NCCO[N+](=O)[O-])c1cccnc1` [Nicorandil] returned a ThS net change of 376. For `O=C(O)c1cccnc1Nc1cccc(C(F)(F)F)c1` [Niflumic acid], the ThS net change was 340. As for `CC1(C)NC(=O)N(c2ccc([N+](=O)[O-])c(C(F)(F)F)c2)C1=O` [Nilutamide], the ThS net change was determined as 363. The same measure, in the same setting: for `COCCOC(=O)C1=C(C)NC(C)=C(C(=O)OC(C)C)C1c1cccc([N+](=O)[O-])c1` (stereo not drawn) [Nimodipine] the value was 343.

Regarding `CCOC(=O)C1=C(C)NC(C)=C(C(=O)OC)C1c1cccc([N+](=O)[O-])c1` (stereo not drawn) [Nitrendipine], the ThS net change is 344.

In turn, `NC(=O)N/N=C/c1ccc([N+](=O)[O-])o1` [Nitrofural] displayed a ThS net change of 365. On the same count and under the same terms, for `CNC(=C[N+](=O)[O-])NCCSCc1csc(CN(C)C)n1` [Nizatidine] the value was 334; for `CNCCC=C1c2ccccc2C=Cc2ccccc21` [Norcyclobenzaprine], 372.

In turn, `C#C[C@]1(O)CC[C@H]2[C@@H]3CCC4=CC(=O)CC[C@@H]4[C@H]3CC[C@@]21C` [Norethindrone] came in with a ThS net change of 356. Still for that read-out and setting: for `C#C[C@]1(O)CC[C@H]2[C@@H]3CCC4=C(CCC(=O)C4)[C@H]3CC[C@@]21C` [Norethynodrel] the value was 341.

Regarding `CCn1cc(C(=O)O)c(=O)c2cc(F)c(N3CCNCC3)cc21` [Norfloxacin], the ThS net change came out at 340. `CO[C@@H]1[C@@H](OC(N)=O)[C@@H](O)[C@H](Oc2ccc3c(O)c(NC(=O)c4ccc([O-])c(CC=C(C)C)c4)c(=O)oc3c2C)OC1(C)C.[Na+]` [Novobiocin sodium salt]: the ThS net change is 369.

Staying with this assay, now noted: p-tau aggregation modulator screen of 1280-compound library; […].
For `CN1Cc2c(N)cccc2C(c2ccccc2)C1` (stereo not drawn) [Nomifensine maleate], the ThS net change is given as 340. In the case of `Cc1cc2c(s1)Nc1ccccc1N=C2N1CCN(C)CC1` [Olanzapine], the ThS net change stood at 345.

Staying with this assay, now noted: p-tau aggregation modulator screen of the compound library, ThS fluorescence net change.
Take `CC(C)[C@H]1CC[C@H](C(=O)N[C@H](Cc2ccccc2)C(=O)O)CC1` [Nateglinide]: the ThS net change was found to be 413. For `CCc1nn(CCCN2CCN(c3cccc(Cl)c3)CC2)c(=O)n1CCOc1ccccc1` [Nefazodone HCl], the ThS net change came to 454.

`Cc1c(O)cccc1C(=O)N[C@@H](CSc1ccccc1)[C@H](O)CN1C[C@H]2CCCC[C@H]2C[C@H]1C(=O)NC(C)(C)C` [Nelfinavir mesylate]: the ThS net change is listed as 563. Consider `Cc1ccnc2c1NC(=O)c1cccnc1N2C1CC1` [Nevirapine], for which the ThS net change is recorded as 427.

`O=C(CCNNC(=O)c1ccncc1)NCc1ccccc1` [Nialamide] showed a ThS net change of 470. Take `Cn1c(NCCN(CCO)CCCc2ccc([N+](=O)[O-])cc2)cc(=O)n(C)c1=O` [Nifekalant]: the ThS net change is listed as 438. Still for that read-out and setting: for `CC1CS(=O)(=O)CCN1/N=C/c1ccc([N+](=O)[O-])o1` (stereo not drawn) [Nifurtimox] the value was 588; for `CC(=O)O[C@]1(C(C)=O)CC[C@H]2[C@@H]3C=C(C)C4=CC(=O)CC[C@@H]4[C@H]3CC[C@@]21C` [Nomegestrol acetate], 463; for `C#C[C@]1(O)CC[C@H]2[C@@H]3CCC4=CC(=O)CC[C@@H]4[C@H]3CC[C@@]21CC` [Norgestrel-(-)-D], 424. In the case of `CC1/C=C/C=C/CC/C=C/C=C/C=C/C=C/C(O[C@@H]2O[C@H](C)[C@@H](O)[C@H](N)[C@@H]2O)CC(O)C(C(=O)O)C(O)CC(=O)CC(O)C(O)CCC(O)CC(O)CC(O)CC(=O)OC(C)C(C)C1O` (stereo partly drawn) [Nystatine], the ThS net change was 446. In the case of `CN(C)CC/C=C1/c2ccccc2COc2ccc(CC(=O)O)cc21` [Olopatadine hydrochloride], the ThS net change was determined as 439. Still for that read-out and setting: in the case of `COc1ccc2[nH]c([S+]([O-])Cc3ncc(C)c(OC)c3C)nc2c1` (stereo not drawn) [Omeprazole] it was 454.
